According to patent US8552067B2, “Macromolecular conjugates of cystic fibrosis transmembrane conductance regulator protein inhibitors and uses therefor” (The Regents of the University of California, priority 2006, dated 2013):
Structures can show the parent of a compound that is named as a salt. Blank lines part the entries; values can stand above or below the compound they belong to.

Key:
wildtype CFTR [1] = biological target: T1, wildtype CFTR (Homo sapiens, UniProt P13569); test: Whole-cell patch-clamp on FRT cells stably expressing wildtype CFTR; settings: after stepping membrane potential to +80 mV; MalH-ConA 250 nM, GlyH-101 5 μM
T1 sequence (P13569 whole entry): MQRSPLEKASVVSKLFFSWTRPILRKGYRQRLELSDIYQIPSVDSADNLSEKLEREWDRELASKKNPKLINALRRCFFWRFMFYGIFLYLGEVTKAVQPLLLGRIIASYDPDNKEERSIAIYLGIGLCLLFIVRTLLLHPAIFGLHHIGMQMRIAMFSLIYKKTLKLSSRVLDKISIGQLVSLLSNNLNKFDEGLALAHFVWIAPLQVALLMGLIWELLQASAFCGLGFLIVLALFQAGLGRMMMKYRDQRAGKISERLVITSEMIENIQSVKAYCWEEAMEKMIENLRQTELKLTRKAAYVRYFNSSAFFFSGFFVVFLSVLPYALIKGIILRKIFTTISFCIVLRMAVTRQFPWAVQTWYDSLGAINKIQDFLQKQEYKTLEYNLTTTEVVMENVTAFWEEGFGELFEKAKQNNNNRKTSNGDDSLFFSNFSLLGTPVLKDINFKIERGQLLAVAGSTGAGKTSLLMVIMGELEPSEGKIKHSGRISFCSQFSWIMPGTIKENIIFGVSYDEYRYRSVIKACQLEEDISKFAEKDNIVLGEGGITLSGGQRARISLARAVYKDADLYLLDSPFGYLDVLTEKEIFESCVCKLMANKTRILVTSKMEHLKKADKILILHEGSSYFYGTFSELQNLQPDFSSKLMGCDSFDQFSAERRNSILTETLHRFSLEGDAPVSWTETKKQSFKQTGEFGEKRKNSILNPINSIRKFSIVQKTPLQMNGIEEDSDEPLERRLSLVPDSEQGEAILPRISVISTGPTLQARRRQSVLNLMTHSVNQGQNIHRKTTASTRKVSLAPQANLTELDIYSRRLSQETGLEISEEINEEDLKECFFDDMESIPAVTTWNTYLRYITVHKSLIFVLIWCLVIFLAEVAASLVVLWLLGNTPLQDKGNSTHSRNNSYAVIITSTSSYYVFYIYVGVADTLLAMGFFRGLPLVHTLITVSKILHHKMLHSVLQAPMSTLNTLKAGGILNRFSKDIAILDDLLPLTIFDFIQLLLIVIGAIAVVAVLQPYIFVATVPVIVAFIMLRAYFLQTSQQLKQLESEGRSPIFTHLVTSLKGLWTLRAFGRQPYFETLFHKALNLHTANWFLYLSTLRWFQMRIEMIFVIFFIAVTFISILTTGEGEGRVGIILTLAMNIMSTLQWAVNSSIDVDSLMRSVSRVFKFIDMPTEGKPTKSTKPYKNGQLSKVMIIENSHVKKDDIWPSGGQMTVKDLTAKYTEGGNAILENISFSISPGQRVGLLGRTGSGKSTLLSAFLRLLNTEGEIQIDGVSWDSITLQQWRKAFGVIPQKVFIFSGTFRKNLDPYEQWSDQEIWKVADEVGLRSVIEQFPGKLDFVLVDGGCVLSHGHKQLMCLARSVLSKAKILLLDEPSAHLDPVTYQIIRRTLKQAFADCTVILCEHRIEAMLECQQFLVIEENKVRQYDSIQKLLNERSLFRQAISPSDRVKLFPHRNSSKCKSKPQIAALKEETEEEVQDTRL

CFTR = biological target: T2, CFTR (Homo sapiens, UniProt P13569); test: Reversibility of CFTR chloride current inhibition after washout; format: cell-based; settings: after 95-100% inhibition; MalH-ConA over six hours
T2 construct: expressed in transfected cells; host or cells: Fischer rat thyroid (FRT) cells
T2 sequence (P13569 whole entry): as above
Protocol: Chloride current increased slowly with incubation time, with 50% ‘reversal’ at approximately 8 h.

wildtype CFTR [2] = biological target: T1, wildtype CFTR; test: Apical membrane chloride current (short-circuit current) in FRT epithelial cells expressing human wildtype CFTR
[3] = Water solubility (statement); format: physicochemical

time constant of current decay (single exponential) (wildtype CFTR [1]): 8 to 10 ms
SMILES: O=C(CNc1ccc2ccccc2c1)NN=Cc1cc(Br)c(O)c(Br)c1O [GlyH-101, N^2-naphthalenyl-[3,5-[dibromo-2,4-dihydroxyphenyl)methylene]glycine hydrazide]

SMILES: O=C(NN=Cc1cc(Br)c(O)c(Br)c1)C(Nc1ccc2ccccc2c1)C(=O)NNC(=S)Nc1ccc(C=Cc2ccc(N=C=S)cc2S(=O)(=O)O)c(S(=O)(=O)O)c1 (stereo not shown) [MalH-DIDS, 2-naphthalenylamino-[(3,5-dibromo-4-dihydroxyphenyl)methylene]hydrazide [[[4-[2-(4-isothiocyanato-2-sulfophenypethenyl]-2-sulfophenyl]amino]thioxomethyl]hydrazide-propanedioic acid, disodium salt]
reversal of CFTR inhibition after washout and forskolin re-addition (CFTR): Near-complete and rapid reversal | IC50 (wildtype CFTR [2]): 1000 nM | effect of mannose on CFTR inhibitory potency (wildtype CFTR [2]; 200 mM mannose): did not affect | effect of heat denaturation on CFTR inhibition activity (wildtype CFTR [2]; 100° C. for 5 min): did not affect | effect of EDTA on CFTR inhibition potency (wildtype CFTR [2]; EDTA in buffer (chelation of Ca2+ and Mg2+)): did not affect | effect of excess unconjugated ConA on CFTR inhibition potency (wildtype CFTR [2]; excess ConA (5 μM) added before compound): did not affect | effect of acid incubation on capability to inhibit CFTR (wildtype CFTR [2]; incubation at either pH 1.5 or pH 5.2): did not affect | CFTR inhibition after pronase treatment (wildtype CFTR [2]; pronase 8 hours, pH 8, 37° C.): not affected | water solubility [3]: highly water soluble
